Measured values: patent publication US20110263693A1, “CELASTROL, GEDUNIN, AND DERIVATIVES THEREOF AS HSP90 INHIBITORS” (DANA-FARBER CANCER INSTITUTE, INC., priority 2006, published 2011)

Legend:
[1] = tested on: androgen signaling signature in LNCaP cells; assay: GE-HTS androgen signaling signature assay / screen; conditions: for GE-HTS screen # replicates that score as the androgon deprived state (n = 3): KNN / GE-HTS screen # replicates that score as the androgon deprived state (n = 3): Naïve Bayes classifier (P < 0.05) / GE-HTS screen # replicates that score as the androgon deprived state (n = 3): unweighted summed score (P < 0.05) / GE-HTS screen # replicates that score as the androgon deprived state (n = 3): weighted summed score (P < 0.05): LNCaP, 1 nM R1881 plus compound ~20 μM, 24 hr, count of 3 replicates
LNCaP cells = assay: Viability screen, luminescent ATP quantitation assay; conditions: 1 nM R1881 plus compound ~20 μM, 3 days
celastrol signature = assay: Connectivity Map query with the celastrol signature; type: cell-based, human; set-up: key to celastrol score (connectivity score): connectivity score, based on Kolmogorov-Smirnov statistic; conditions: enrichment of the celastrol signature (1.25 μM celastrol at 6 h, LNCaP) in the compound's Connectivity Map profiles; 6 hr treatment
Outline: (§1)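 LNCaP cells received celastrol 1.25 μM or gedunin 20 μM for 6 h. Each signature was scored by Kolmogorov–Smirnov-based connectivity against 453 build01 profiles, mostly 6 h treatments of MCF7 cells.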

gedunin signature = assay: Connectivity Map query with the gedunin signature; type: cell-based, human; set-up: key to gedunin score (connectivity score): connectivity score, based on Kolmogorov-Smirnov statistic; conditions: enrichment of the gedunin signature (20 μM gedunin at 6 hours, LNCaP) in the compound's Connectivity Map profiles; 6 hr treatment
Outline: as §1

[2] = control wells, 1 nM R1881 plus 10 μM casodex, count of n = 336

Molecule | GE-HTS screen # replicates that score as the androgon deprived state: KNN [1, 2] | GE-HTS screen # replicates that score as the androgon deprived state: Naïve Bayes classifier (P < 0.05) [1, 2] | GE-HTS screen # replicates that score as the androgon deprived state: unweighted summed score (P < 0.05) [1, 2] | GE-HTS screen # replicates that score as the androgon deprived state: weighted summed score (P < 0.05) [1, 2] | GE-HTS screen # replicates that score as the androgon deprived state (n = 3): KNN [1] | GE-HTS screen # replicates that score as the androgon deprived state (n = 3): Naïve Bayes classifier (P < 0.05) [1] | GE-HTS screen # replicates that score as the androgon deprived state (n = 3): unweighted summed score (P < 0.05) [1] | GE-HTS screen # replicates that score as the androgon deprived state (n = 3): weighted summed score (P < 0.05) [1] | viability screen: viability (% [ATP] normalized to R1881-treated control) (LNCaP cells) [%] | celastrol score (connectivity score) (celastrol signature) | gedunin score (connectivity score) (gedunin signature)
CC(O)(CS(=O)(=O)c1ccc(F)cc1)C(=O)Nc1ccc(C#N)c(C(F)(F)F)c1 (centres unmarked) [casodex, bicalutamide, reference compound] | 283 | 268 | 257 | 261 |  |  |  |  |  |  | 
CC(=O)[C@H]1CC[C@H]2[C@@H]3CC=C4C[C@@H](O)CC[C@]4(C)[C@H]3CC[C@]12C [pregnenolone, reference compound] |  |  |  |  | 3 | 2 | 0 | 0 | 91.5 |  | 
estrone hemisuccinate [reference compound] |  |  |  |  | 3 | 3 | 0 | 1 | 71.9 |  | 
CC(=O)O[C@H]1CC[C@]2(C)[C@H]3C(=O)C=C4[C@@H]5[C@@H](C)[C@H](C)CC[C@]5(C(=O)O)CC[C@@]4(C)[C@]3(C)CC[C@H]2C1(C)C [11-oxoursolic acid acetate] |  |  |  |  | 3 | 1 | 3 | 2 |  |  | 
CC(=O)O[C@@H]1C[C@H]2C(C)(C)C(=O)C=C[C@]2(C)[C@H]2CC[C@]3(C)C(=CC(=O)O[C@H]3c3ccoc3)[C@@]21C [deoxygedunin] |  |  |  |  | 2 | 2 | 3 | 3 | 63.3 |  | 
avermectin B1 [reference compound] |  |  |  |  | 3 | 2 | 2 | 2 |  |  | 
COC(=O)[C@H](O)[C@H]1C(C)(C)[C@H](OC(C)=O)[C@@H]2CC3=C4CC(=O)O[C@@H](c5ccoc5)[C@]4(C)CC[C@@H]3[C@@]1(C)C2=O [swietenolide-3-acetate] |  |  |  |  | 2 | 2 | 2 | 2 |  |  | 
CC1(C)C(=O)CC[C@]2(C)[C@H]3CC[C@]4(C)C(=CC(=O)O[C@H]4c4ccoc4)[C@]3(C)[C@H](O)C[C@@H]12 [dihydro-7-desacetyldeoxygedunin] |  |  |  |  | 3 | 2 | 2 | 1 |  |  | 
CC(C)(C)c1cc(/C=C(\C#N)C(N)=S)cc(C(C)(C)C)c1O [AG-879, reference compound] |  |  |  |  | 3 | 2 | 2 | 2 |  |  | 
CC1(C)C(=O)C=C[C@]2(C)[C@H]3CC[C@@]4(C)[C@H](c5ccoc5)OC(=O)[C@H]5O[C@]54[C@]3(C)C=C[C@@H]12 [7-desacetoxy-6,7-dehydrogedunin] |  |  |  |  | 3 | 3 | 3 | 3 |  |  | 
CN(C)CCOC(c1ccccc1)c1ccccc1.Cn1c(=O)c2[nH]c(Cl)nc2n(C)c1=O [dimenhydrinate, reference compound] |  |  |  |  | 3 | 3 | 0 | 0 |  |  | 
C=C/C(C)=C\CC1C(C)(O)CCC2C(C)(C)CCCC21C (centres unmarked) [abienol] |  |  |  |  | 2 | 1 | 3 | 3 |  |  | 
CC1(C)C(=O)C=C[C@]2(C)[C@H]3CC[C@@]4(C)[C@H](c5ccoc5)OC(=O)[C@H]5O[C@]54[C@]3(C)C(=O)C[C@@H]12 [deacetoxy-7-oxogedunin] |  |  |  |  | 3 | 3 | 3 | 3 | 69.0 |  | 
C[C@@H]1[C@H](O)[C@@H](C)/C=C/C=C/CC/C=C/C=C/C=C/C=C/C(O[C@H]2O[C@H](C)[C@@H](O)[C@H](N)[C@@H]2O)CC2O[C@](O)(CC(O)C(O)CCC(O)CC(O)CC(O)CC(=O)O[C@H]1C)CC(O)C2C(=O)O (some centres unmarked) [nystatin, reference compound] |  |  |  |  | 2 | 2 | 0 | 0 | 74.5 |  | 
COc1ccc(C(C)C(=O)c2ccc(O)cc2O)cc1 (centres unmarked) [angolensin] |  |  |  |  | 3 | 3 | 3 | 3 |  |  | 
CC(=O)O[C@H]1CC[C@]2(C)C(C[C@@H](OC(C)=O)[C@]3(C)C4=CC(=O)O[C@H](c5ccoc5)[C@@]4(C)CCC23)C1(C)C (stereo partly drawn) [3-deoxo-3beta-acetoxydeoxydihydrogedunin] |  |  |  |  | 3 | 3 | 3 | 3 | 51.0 |  | 
CC(=O)O[C@@H]1CC2C(C)(C)[C@H](O)CC[C@]2(C)C2CC[C@@]3(C)[C@H](c4ccoc4)OC(=O)C4OC43[C@@]21C (stereo partly drawn) [3alpha-hydroxydeoxodihydrogedunin] |  |  |  |  | 3 | 3 | 3 | 3 |  |  | 
methylnortichexanthone |  |  |  |  | 3 | 2 | 2 | 2 |  |  | 
CC(=O)O[C@@H]1CC2C(C)(C)CCC[C@]2(C)C2CC[C@]3(C)C(=CC(=O)O[C@H]3c3ccoc3)[C@@]21C (some centres unmarked) [deoxodeoxydihydrogedunin] |  |  |  |  | 0 | 3 | 2 | 2 |  |  | 
CCCC(CCC)C(=O)O [valproic acid] |  |  |  |  |  |  |  |  |  | 0.086 | 0.136
CO[C@H]1C[C@@H]2CC[C@@H](C)[C@@](O)(O2)C(=O)C(=O)N2CCCC[C@H]2C(=O)O[C@H]([C@H](C)C[C@@H]2CC[C@@H](O)[C@H](OC)C2)CC(=O)[C@H](C)/C=C(\C)[C@@H](O)[C@@H](OC)C(=O)[C@H](C)C[C@H](C)/C=C/C=C/C=C/1C [sirolimus] |  |  |  |  |  |  |  |  |  | −0.283 | 0
COP(=S)(OC)Oc1ccc([N+](=O)[O-])cc1 [methyl parathione] |  |  |  |  | 3 | 1 | 3 | 0 |  |  | 
NC(=O)N1c2ccccc2C=Cc2ccccc21 [carbamazepine] |  |  |  |  |  |  |  |  |  | 0.339 | 0.407
